According to PMC7588595, “Small-molecule active pharmaceutical ingredients of approved cancer therapeutics inhibit human aspartate/asparagine-β-hydroxylase” (Bioorganic & Medicinal Chemistry, 2020):
Where two headings read alike, the source gives them in different places.

What was measured:
[1] = target: T1, human AspH (His6-AspH315–758) (Homo sapiens, UniProt Q12797); test: SPE-MS AspH inhibition assay (hFX-CP101-119 substrate hydroxylation); type: biochemical; settings: for inhibition at 20 µM / AspH inhibition at 20 μM: 20 μM fixed inhibitor, relative to DMSO and 2,4-PDCA controls; for remaining activity at 20 µM: 20 μM fixed inhibitor concentration; for Hill coefficient of AspH inhibition curves: dose-response curves of SPE-MS AspH inhibition assay; for Plate 1 (% inhibition) / Plate 1 (% conversion) / Plate 1-duplicate (% inhibition) / Plate 1-duplicate (% conversion): AspH-inhibitor screening; for Plate 1 (% inhibition): 384-well Plate 1; for Plate 1 (% conversion): 384-well Plate 1, substrate conversion; for Plate 1-duplicate (% conversion): substrate conversion
T1 construct: N-Terminally His6-tagged human AspH315–758 (His6-AspH315–758) was produced in Escherichia coli BL21 (DE3) cells; made in house; host or cells: Escherichia coli BL21 (DE3), pET-28a(+) vector
T1 sequence (Q12797 315-758): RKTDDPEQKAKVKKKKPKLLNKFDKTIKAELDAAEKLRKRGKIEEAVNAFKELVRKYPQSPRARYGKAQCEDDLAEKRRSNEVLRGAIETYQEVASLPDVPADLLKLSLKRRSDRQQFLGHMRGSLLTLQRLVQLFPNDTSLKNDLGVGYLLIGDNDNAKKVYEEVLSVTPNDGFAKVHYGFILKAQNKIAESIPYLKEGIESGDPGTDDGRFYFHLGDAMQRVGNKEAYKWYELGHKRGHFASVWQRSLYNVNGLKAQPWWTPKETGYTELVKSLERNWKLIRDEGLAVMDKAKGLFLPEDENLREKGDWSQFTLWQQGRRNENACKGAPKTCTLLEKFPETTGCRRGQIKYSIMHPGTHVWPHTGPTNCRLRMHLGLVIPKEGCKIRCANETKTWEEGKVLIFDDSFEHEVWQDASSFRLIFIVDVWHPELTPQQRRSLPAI

His6-AspH315–758 = target: T2, His6-AspH315–758 (Homo sapiens, UniProt Q12797); test: AspH differential scanning fluorimetry (DSF) assay, melting temperature shift; type: binding; settings: 40 μM inhibitor, 4 μM His6-AspH315–758, with respect to DMSO controls; for ΔTm at 40 µM: read-out: Tm-shift (ΔTm) of AspH
T2 construct: A mixture of SYPRO orange (1‰v/v) and His6-AspH315–758 (4 μM) in 50 mM aqueous HEPES buffer; made in house; host or cells: Escherichia coli BL21 (DE3), pET-28a(+) vector
T2 sequence (Q12797 315-758): T1 sequence (Q12797 315-758)
Method: A mixture of SYPRO orange (1‰v/v) and His6-AspH315–758 (4 μM) in 50 mM aqueous HEPES buffer (pH 7.5, 150 mM NaCl, 50 μM NiCl2) was carefully pipetted into a 96-well VWR PCR-plate (38 μL per well). An inhibitor solution (0.8 mM in DMSO) or a negative control sample (pure DMSO) was added to each well (2 μL per well, final inhibitor concentration of 40 μM) and the resulting solutions were gently mixed using a pipette. The plate was sealed with optical tape (Bio-Rag, iCycler iQ), centrifuged (5 sec, 1000 rpm) and placed into a C1000Touch Thermal Cycler equipped with a CFX96 Real-Time System (Bio-Rad). The instrument was heated with a rate of 1 °C per cycle (starting at an initial temperature of 25 °C; 70 cycles total). Data were analyzed using Microsoft Excel and GraphPad Prism according to the literature.[107] DSF assays were performed in independent duplicates, each composed of technical duplicates (Supporting Fig. S4).

Bcl-XL = settings: fluorescence polarisation, 30 nM enzyme concentration; cited from earlier work
[2] = 50 nM His6-AspH315–758, 1 μM hFX-CP101–119, 100 μM LAA, 3 μM 2OG, 2 μM FAS, 50 mM HEPES pH 7.5, 20 °C, read-out: IC50
[3] = 50 nM His6-AspH315–758, 1 μM hFX-CP101–119, 100 μM LAA, 3 μM 2OG, 2 μM FAS, 50 mM HEPES pH 7.5, 20 °C
[4] = read-out: IC50 at 10 μM substrate, 10 μM hFX-CP101–119 and 10 μM 2OG instead of 1 μM hFX-CP101–119 and 3 μM 2OG
[5] = read-out: IC50 at 200 μM 2OG, 200 μM 2OG instead of 3 μM 2OG
[6] = read-out: IC50 at 20 μM Fe(II), 20 μM Fe(II) instead of 2 μM Fe(II)

| Compound | IC50 [1, 2] | inhibition at 20 µM [1, 3] | IC50 [1, 4] | IC50 [1, 5] | ΔTm at 40 µM (His6-AspH315–758) | IC50 ([1]; 50 nM His6-AspH315–758, 1 μM hFX-CP101–119, 100 μM LAA, 3 μM 2OG, 2 μM FAS, 50 mM HEPES pH 7.5, 20 °C, listed as navitoclax, read-out: IC50) | remaining activity at 20 µM [1] | IC50 [1, 6] | AspH inhibition at 20 μM [1, 3] | Hill coefficient of AspH inhibition curves [1] | IC50 ([1]; 50 nM His6-AspH315–758, 1 μM hFX-CP101–119, 100 μM LAA, 3 μM 2OG, 2 μM FAS, 50 mM HEPES pH 7.5, 20 °C, listed as venetoclax, read-out: IC50) | Plate 1 (% inhibition) [1] | Plate 1 (% conversion) [1] | Plate 1-duplicate (% inhibition) [1] | Plate 1-duplicate (% conversion) [1] | selectivity for Bcl-2 over AspH ([1]; Bcl-2 inhibited more efficiently than AspH) | Tm-shift (ΔTm) of AspH (His6-AspH315–758) | IC50 (Bcl-XL) |
| --- | --- | --- | --- | --- | --- | --- | --- | --- | --- | --- | --- | --- | --- | --- | --- | --- | --- | --- |
| O=C(O)c1ccnc(C(=O)O)c1 [2,4-PDCA, Pyridine-2,4-dicarboxylic acid, reference compound] | 20 ± 10 nM | 100 ± 0.6% | 20 ± 10 nM | 100 ± 30 nM | 3.2 ± 0.4 °C | – | – | – | – | – | – | – | – | – | – | – | – | – |
| CC1(C)CCC(c2ccc(Cl)cc2)=C(CN2CCN(c3ccc(C(=O)NS(=O)(=O)c4ccc(N[C@H](CCN5CCOCC5)CSc5ccccc5)c(S(=O)(=O)C(F)(F)F)c4)cc3)CC2)C1 [Navitoclax, reference compound] | 1030 ± 120 nM | 90.1 ± 0.1% | 1210 ± 40 nM | 1330 ± 170 nM | -2.1 ± 0.3 °C | ~1000 nM | ~10% | 800 ± 420 nM | – | – | – | – | – | – | – | – | – | – |
| O=C(/C=C/c1cccc(S(=O)(=O)Nc2ccccc2)c1)NO [Belinostat, reference compound] | 7490 ± 1260 nM | > 90% | 4770 ± 100 nM | 11200 ± 4000 nM | 0.1 ± 0.2 °C | – | – | 3100 ± 1440 nM | 97.1 ± 0.2% | < -2.0 | – | – | – | – | – | – | – | – |
| CC1(C)CCC(CN2CCN(c3ccc(C(=O)NS(=O)(=O)c4ccc(NCC5CCOCC5)c([N+](=O)[O-])c4)c(Oc4cnc5[nH]ccc5c4)c3)CC2)=C(c2ccc(Cl)cc2)C1 [Venetoclax, reference compound] | 1400 ± 140 nM | 97.2 ± 0.2% | 1570 ± 210 nM | 1520 ± 240 nM | 0.7 ± 0.3 °C | – | ~3% | 1290 ± 240 nM | – | < -2.0 | ~1400 nM | 97.05% | 4.94% | 97.31% | 3.78% | ~ 1000 fold | – | – |
| Mithramycin A [reference compound] | – | – | – | – | – | – | – | – | – | – | – | – | – | – | – | – | 0.4 ± 0.2 °C | – |
| Cc1cc2c(C(C)C)c(O)c(O)c(C=O)c2c(O)c1-c1c(C)cc2c(C(C)C)c(O)c(O)c(C=O)c2c1O [(R)-Gossypol, reference compound] | 250 ± 10 nM | 101 ± 2.3% | 330 ± 20 nM | 250 ± 10 nM | – | – | – | 260 ± 30 nM | Complete suppression of AspH activity | – | – | – | – | – | – | – | – | ~500 nM |
| CN(C)CC[C@H](CSc1ccccc1)Nc1ccc(S(=O)(=O)NC(=O)c2ccc(N3CCN(Cc4ccccc4-c4ccc(Cl)cc4)CC3)cc2)cc1[N+](=O)[O-] [ABT-737, reference compound] | 3380 ± 340 nM | – | 2990 ± 350 nM | 4470 ± 1320 nM | 1.5 ± 0.1 °C | – | – | 2920 ± 880 nM | – | – | – | – | – | – | – | – | – | – |
| CC1(COc2ccc3c(c2)ncn3-c2ccc3cccc(N4CCC(N)CC4)c3n2)COC1 [Crenolanib] | – | – | – | – | – | – | – | – | – | – | – | -2.58% | 50.94% | -3.79% | 53.92% | – | – | – |
